Assay results taken from patent publication US20030228632A1, “Stable RXR expressing cell line” (Allergan Sales, Inc., priority 2000, published 2003).

Key:
Type in all cases: cell-based, Rat
HircRXRα cells [1] = test: Cell growth of HircRXRα cells, direct microscopic observation; conditions: 1 nM
Description: (§1) The effect on cell growth was evaluated by plating either a HircB cells (as a control) or HircRXRα cells in 6 well plates with 0.5×10^5 cells per well in 10% FBS/DMEM/F12. The next day, the medium was replaced with a specified concentration of agonist, antagonist or both or with 0.1% DMSO in 10% FBS/DMEM/F12. Analyses were performed in triplicate.
[…] Alternatively, cell growth was measured using the MTT assay using absorbance at 590 nm. Mosmann, T., et al., J Immunol. Meth. (1983) 65:55-62.

HircRXRα cells [2] = test: HircRXRα cell growth by MTT assay (FIGS. 6 and 7); conditions: five days of treatment, FIG. 6
Description: as §1
After incubation with agonist for 2 days, the change in cell number and morphology in the various HircRXRα cell samples were observed under the microscope. Alternatively, cell growth was measured using the MTT assay using absorbance at 590 nm. Mosmann, T., et al., J Immunol. Meth. (1983) 65:55-62.
FIGS. 6 and 7 show effects of RXRα ligands on HircRXRα cell growth as determined when cell growth was assessed by the MTT assay.

HircRXRα cells [3] = test: Cell counts of HircRXRα cells after agonist treatment (FIG. 5); conditions: 1 nM, four days of treatment
Description: as §1

HircB cells = test: Cell counts of parental HircB cells after agonist treatment (FIG. 5); conditions: 1 nM, four days of treatment
Description: as §1

[4] = tested on: phosphorylated MEK in HircRXRα cells; test: Insulin stimulated phosphorylation of MEK in HircRXRα cells (Western blot, FIG. 8); conditions: 100 nM insulin, 0-30 minutes
Description: (§2) They were then incubated for various periods in the presence of 100 nM insulin and then lysed. Solubilized cell proteins were subjected to SDS-PAGE and transferred to nitrocellulose and immunoblotted using antibodies specific to phosphorylated forms of MEK and MAP kinase.
(§3) FIGS. 8 and 9 show the results. […] In the left panel, the parental HircB cell line was tested for phosphorylated MEK in the solubilized protein at 0 minutes (lane 1), 5 minutes (lane 2), 15 minutes (lane 3) and 30 minutes (lane 4) after treatment with 100 nM insulin.

[5] = tested on: phosphorylated MAP-kinase in HircB cells; test: Insulin stimulated phosphorylation of MAP kinase in HircB cells (Western blot, FIG. 9); conditions: 100 nM insulin, up to 90 minutes
Description: as §2
(§4) Similar results are shown in FIG. 9 with respect to the phosphorylation of MAP-kinase in response to insulin.

[6] = tested on: phosphorylated MAP-kinase in HircRXRα cells; test: Insulin stimulated phosphorylation of MAP kinase in HircRXRα cells (Western blot, FIG. 9); conditions: 100 nM insulin, up to 90 minutes
Description: as §2, §4

[7] = tested on: phosphorylated MEK in HircB cells; test: Insulin stimulated phosphorylation of MEK in HircB cells (Western blot, FIG. 8); conditions: 100 nM insulin, 0-30 minutes
Description: as §2, §3

CC(/C=C/[C@@H]1C[C@]1(C)c1ccc2c(c1)C(C)(C)CCC2(C)C)=C\C(=O)O [AGN 4204]
effect on cell growth (microscopic observation) (HircRXRα cells [1]; after four days): the reduction in growth was maintained
effect on cell growth (microscopic observation) (HircRXRα cells [1]; after two days): greatly reduced growth
effect on cell growth (MTT assay) (HircRXRα cells [2]; 1 nM): significant reduction in growth
effect on cell growth (MTT assay) (HircRXRα cells [2]; 100 nM): further reduction in growth
growth (cell counts) relative to no agonist (HircRXRα cells [3]): approximately one-third
effect on growth (cell counts) (HircB cells): no demonstrable effect

insulin: insulin used at 100 nM to stimulate MEK and MAP kinase phosphorylation
phosphorylated MEK after insulin treatment [4]: less reduced after 30 minutes than in the HircB cell line
phosphorylated MAP-kinase after insulin treatment [5]: virtually gone after 90 minutes
phosphorylated MAP-kinase after insulin treatment [6]: substantially maintained over the 90-minute period
phosphorylated MEK after insulin treatment [7]: diminished considerably by 30 minutes
